Experimental data from USRE31731E, “Herbicidal 4-trifluoromethyl-4-nitrodiphenyl ethers” (priority 1978, dated 1984).

Legend:
Type in all cases: in vivo
peanuts = assay: Crop tolerance, peanuts; details: 50% or less kill of crop at rates giving more than 50% kill of weeds
Method: (§1) The following test procedure is employed. Seeds of selected crops and weeds are planted in soil in flats. For preemergence tests, the flats are treated with the test compound immediately after the planting. For postemergence tests, the seeds are allowed to germinate, and after 2 weeks the flats are treated with the test compound. The compound to be evaluated is dissolved in acetone, diluted with water, and sprayed over the flats using a carrier volume equivalent to 50 gallons per acre at the rate of application (pounds per acre, lb/A.) specified in the tables. About 2 weeks after the application of the test compound, the state of growth of the plants is observed and the phytotoxic effect of the compound is evaluated. Table II gives the average percent control achieved by the test compounds in terms of the percent of the plants which are killed by the compounds.
(§2) Following the general test procedure of Example 73, diphenyl ethers are evaluated for significant tolerance (as shown by 50% or less kill of the test crop at levels of application which give more than 50% kill of many or all of the weeds of Example 73) towards some or all of the following common agronomic crops (not all compounds tested against all crops): alfalfa, snapbeans, corn, cotton, cucumbers, peanuts, rape, rice, safflower, soybeans, tomatoes, and wheat.

Monocots [1] = assay: Herbicidal activity, preemergence, monocot weeds (Table II); details: pre-emergence, 336 h, about 2 weeks, read-out: % control (percent of plants killed); for pest or weed control at 2241.7 g/ha: 2 lb./A.; for pest or weed control at 4483.4 g/ha: 4 lb./A.
Method: (§3) Using the procedure described below, diphenyl ethers were evaluated for control of the following weeds: […]
(§4) barnyardgrass (Echinochloa crusgalli) crabgrass (Digitaria spp.) nutsedge (Cyperus esculentus)
(§5) At 2 and 4 pounds per acre:
(§6) **Bermudagrass (Cynodon dactylon)
(§7) *downy brome (Bromus tectorum) foxtail (Setaria faberii)
(§8) Johnsongrass (Sorghum halepense) […]
(§9) quackgrass (Agropyron repens)
(§10) *ryegrass (Lolium perenne)
(§11) *yellow millet (Panicum miliaceum)
as §1

rice = assay: Crop tolerance, rice; details: 50% or less kill of crop at rates giving more than 50% kill of weeds
Method: as §1, §2

Monocots [2] = assay: Herbicidal activity, postemergence, monocot weeds (Table II); details: post-emergence, 336 h, about 2 weeks, read-out: % control (percent of plants killed); for pest or weed control at 2241.7 g/ha: 2 lb./A.; for pest or weed control at 4483.4 g/ha: 4 lb./A.
Method: as §3, §4, §5, §6, §7, §8, §9, §10, §11, §1

wheat = assay: Crop tolerance, wheat; details: 50% or less kill of crop at rates giving more than 50% kill of weeds
Method: as §1, §2

soybeans = assay: Crop tolerance, soybeans; details: 50% or less kill of crop at rates giving more than 50% kill of weeds
Method: as §1, §2

Dicots [3] = assay: Herbicidal activity, postemergence, dicot weeds (Table II); details: post-emergence, 336 h, about 2 weeks, read-out: % control (percent of plants killed); for pest or weed control at 2241.7 g/ha: 2 lb./A.; for pest or weed control at 4483.4 g/ha: 4 lb./A.
Method: as §3
(§12) bindweed (Convolvulus arvensis) curly dock (Remex crispus) velvetleaf (Abutilon theophrasti) wild mustard (Brassica haber)
(§13) At 2 and 4 pounds per acre: […]
(§14) cocklebur (Xanthium pensylvanicum)
(§15) **coffeeweed (Sesbania macrocarpa)
(§16) *curly dock (Rumex crispus)
(§17) *lambsquarters (Chenopodium album) morningglory (Ipomoea purpurea)
(§18) *pigweed (Amaranthus retroflexus)
(§19) **ragweed (Ambrosia artemisiifolia)
(§20) *smartweed (Polygonum pensylvanicum)
(§21) **tomato (Lycopersicon esculentum)
(§22) *wild carrot (Daucus carota)
(§23) *wild mustard (Brassica haber)
as §1

corn = assay: Crop tolerance, corn; details: 50% or less kill of crop at rates giving more than 50% kill of weeds
Method: as §1, §2

Dicots [4] = assay: Herbicidal activity, preemergence, dicot weeds (Table II); details: pre-emergence, 336 h, about 2 weeks, read-out: % control (percent of plants killed); for pest or weed control at 2241.7 g/ha: 2 lb./A.; for pest or weed control at 4483.4 g/ha: 4 lb./A.
Method: as §3, §12, §13, §14, §15, §16, §17, §18, §19, §20, §21, §22, §23, §1

[5] = postemergence or on transplanted rice

Compound | Tolerance to peanuts (peanuts; postemergence) | Tolerance to peanuts (peanuts; preemergence) | pest or weed control at 2241.7 g/ha (Monocots [1]) [%] | pest or weed control at 4483.4 g/ha (Monocots [1]) [%] | Tolerance to rice (rice; [5]) | Tolerance to rice (rice; preemergence) | pest or weed control at 2241.7 g/ha (Monocots [2]) [%] | pest or weed control at 4483.4 g/ha (Monocots [2]) [%] | Tolerance to wheat (wheat; postemergence) | Tolerance to wheat (wheat; preemergence) | Tolerance to soybeans (soybeans; postemergence or layby) | Tolerance to soybeans (soybeans; preemergence) | pest or weed control at 2241.7 g/ha (Dicots [3]) [%] | pest or weed control at 4483.4 g/ha (Dicots [3]) [%] | Tolerance to corn (corn; postemergence) | Tolerance to corn (corn; preemergence) | pest or weed control at 2241.7 g/ha (Dicots [4]) [%] | pest or weed control at 4483.4 g/ha (Dicots [4]) [%]
CCC(=O)Nc1cc(Oc2ccc(C(F)(F)F)cc2Cl)ccc1[N+](=O)[O-] [Example 34] | Tolerance | Tolerance | 83 | 35 | Tolerance | Tolerance | 47 | 32 | Tolerance | Tolerance | Tolerance | Tolerance | 90 | 89 | Tolerance | Tolerance | 85 | 52
O=[N+]([O-])c1ccc(Oc2ccc(C(F)(F)F)cc2Cl)cc1Cl [Example 37, 2-chloro-α,α,α-trifluoro-p-tolyl-3-chloro-4-nitrophenyl ether] | Tolerance |  | 100 | 99 |  |  | 100 | 92 |  |  |  |  | 100 | 100 |  |  | 100 | 100
CCOc1cc(Oc2c(Cl)cc(C(F)(F)F)cc2Cl)ccc1[N+](=O)[O-] [Example 56, 2,6-Dichloro-α,α,α-trifluoro-p-tolyl-3-ethoxy-4-nitrophenyl ether] |  | Tolerance | 100 | 91 |  |  | 100 | 99 |  | Tolerance |  |  | 99 | 100 | Tolerance |  | 100 | 83
Cc1cc(Oc2ccc(C(F)(F)F)cc2Cl)ccc1[N+](=O)[O-] [Example 36, 2-chloro-α,α,α-trifluoro-p-tolyl-4-nitro-m-tolyl ether] | Tolerance | Tolerance | 100 | 93 |  |  | 94 | 87 | Tolerance |  |  |  | 98 | 100 | Tolerance |  | 100 | 100
CNC(=O)C(C)Oc1cc(Oc2ccc(C(F)(F)F)cc2Cl)ccc1[N+](=O)[O-] (stereo not drawn) [Example 52] |  | Tolerance | 98 | 79 |  | Tolerance | 93 | 87 |  |  |  | Tolerance | 100 | 100 | Tolerance | Tolerance | 75 | 67
O=C(O)c1cc(Oc2ccc(C(F)(F)F)cc2Cl)ccc1[N+](=O)[O-] [Example 48, 2-Chloro-α,α,α-trifluoro-p-tolyl-3-carboxy-4-nitrophenyl ether] | Tolerance | Tolerance | 100 | 99 | Tolerance |  | 84 | 75 | Tolerance |  |  | Tolerance | 97 | 100 |  |  | 100 | 97
COC(=O)C(C)Oc1cc(Oc2ccc(C(F)(F)F)cc2Cl)ccc1[N+](=O)[O-] (stereo not drawn) [Example 50] |  | Tolerance | 98 | 90 |  |  | 100 | 97 |  | Tolerance |  | Tolerance | 100 | 100 |  |  | 100 | 83
